Test system: GUMC-403
Assay: viability at highest tested concentration (max response) relative to DMSO (% of DMSO control); higher = less cytotoxic
Conditions: library / dose series: MIPE library, 11-point 1:3 dilution, 48 h
Procedure, shortened: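 In 1536-well plates, 700 GUMC-403 papilloma cells per well, taken from a patient and grown by conditional reprogramming, were seeded in 5 μL F + Y medium and incubated overnight at 37 °C. Compounds were pinned in at 23 nL in an 11-point 1:3 series, and left for 48 h before CellTiter-Glo luminescence was read on a ViewLux against vehicle (100%) and empty (0%) wells. Reported values are viability at the highest tested concentration relative to vehicle control.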

CC1COC2(CCN(CC2)C/3=N/C(=O)C4=CC(=CC(=C4S3)[N+]([O-])=O)C(F)(F)F)O1 (stereo unspecified)
viability (top concentration 46.1 µM): 122

CCOc1ccc(Cc2cc([C@@H]3O[C@H](CO)[C@@H](O)[C@H](O)[C@H]3O)ccc2Cl)cc1
viability (top concentration 46.1 µM): 130

Cc1c(C(=O)c2cccc3ccccc23)c2cccc3c2n1[C@H](CN1CCOCC1)CO3
viability (top concentration 46.1 µM): 76.9

OC1=CC=C(C=C1)\C2=C(O)\C(=O)C3=C(O2)C=C(O)C=C3O
viability (top concentration 46.1 µM): 160

COc1ccc2[nH]cc(CCNC(C)=O)c2c1
viability (top concentration 46.1 µM): 106

C=C(C)[C@H]1Cc2c(ccc3c2O[C@@H]2COc4cc(OC)c(OC)cc4[C@@H]2C3=O)O1
viability (top concentration 46.1 µM): 112

O=C(O)c1ccc(-c2c[nH]c3ncc(-c4ccccc4)cc23)cc1C1CCCC1
viability (top concentration 46.1 µM): 145

C[N]1C=C(C2=CC=CC=C12)\C3=C(\C(=O)NC3=O)C4=C[N](C5CCN(CC5)CC6=NC=CC=C6)C7=C4C=CC=C7
viability (top concentration 46.1 µM): 128

CC[C@@]1([C@@H]2O[C@@H]([C@H]3O[C@@](O)(CO)[C@H](C)C[C@@H]3C)C[C@@H]2C)CC[C@H]([C@]2(C)CC[C@]3(C[C@H](O)[C@@H](C)[C@@H]([C@@H](C)[C@@H](OC)[C@H](C)C(=O)[O-])O3)O2)O1
viability (top concentration 23 µM): 116

CC(=O)OCC(CCn1cnc2cnc(N)nc21)COC(C)=O
viability (top concentration 46.1 µM): 116

Cc1nn(Cc2ccccc2Cl)c(C)c1CN(C)CC(O)COc1ccc(Cl)cc1 (stereo unspecified)
viability (top concentration 46.1 µM): 90.9

CC#CCn1c(N2CCC[C@@H](N)C2)nc2c1c(=O)n(Cc1nc(C)c3ccccc3n1)c(=O)n2C
viability (top concentration 46.1 µM): 111

Cn1cnc2c(F)c(Nc3ccc(Br)cc3F)c(C(=O)NOCCO)cc21
viability (top concentration 46.1 µM): 89.6

O=C(O)CC/C=C\CC[C@@H]1[C@@H](N2CCCCC2)[C@@H](O)C[C@@H]1OCc1ccc(-c2ccccc2)cc1
viability (top concentration 46.1 µM): 112

COc1cc(OC)c(C(=O)CCCN2CCCC2)c(OC)c1
viability (top concentration 46.1 µM): 112

CCOC(=O)C/1=C(O)/C(=O)N(CC2=CC=CC=C2)C1
viability (top concentration 46.1 µM): 136

O=C(/C=C/c1cccc([S+](=O)([O-])Nc2ccccc2)c1)NO
viability (top concentration 92.2 µM): 87.7

CC(C)c1c(C(=O)Nc2ccccc2)c(-c2ccccc2)c(-c2ccc(F)cc2)n1CC[C@@H](O)C[C@@H](O)CC(=O)[O-]
viability (top concentration 46.1 µM): 70.3

O=C(CS(=O)Cc1ccco1)NC/C=C\COc1cc(CN2CCCCC2)ccn1 (stereo unspecified)
viability (top concentration 46.1 µM): 128

Cc1oncc1C(=O)Nc1ccc(C(F)(F)F)cc1
viability (top concentration 46.1 µM): 105

NC(=O)c1cnc(-c2ccc(C3(N)CCC3)cc2)c(-c2ccccc2)c1
viability (top concentration 46.1 µM): 103

CNC(=O)c1ccccc1Sc1ccc2c(/C=C/c3ccccn3)n[nH]c2c1
viability (top concentration 46.1 µM): 104

CC(C)CNc1ccnc(NCc2csc(-c3ccccc3)n2)n1
viability (top concentration 46.1 µM): 100

Cc1cc(-c2ccc(CC(=O)Nc3ccc(-c4cccnc4)cc3)cc2)ccn1
viability (top concentration 46.1 µM): 118

C[N+]1(C)[C@@H]2CC(OC(=O)C(O)(c3cccs3)c3cccs3)C[C@H]1[C@@H]1O[C@@H]12 (stereo partly specified)
viability (top concentration 46.1 µM): 127

N#C[C@@H]1C[C@@H]2C[C@@H]2N1C(=O)[C@@H](N)C12CC3CC(CC(O)(C3)C1)C2
viability (top concentration 46.1 µM): 111

CCC[C@H](NC(=O)[C@@H]1[C@H]2CCC[C@H]2CN1C(=O)[C@@H](NC(=O)[C@@H](NC(=O)c1cnccn1)C1CCCCC1)C(C)(C)C)C(=O)C(=O)NC1CC1
viability (top concentration 46.1 µM): 117

CN(C)CCOC(c1ccccc1)c1ccccc1
viability (top concentration 46.1 µM): 120

COCCCOc1ccnc(C[S+]([O-])c2nc3ccccc3[n-]2)c1C (stereo unspecified)
viability (top concentration 46.1 µM): 120

COc1cc([C@@H]2c3cc4c(cc3[C@@H](O[C@@H]3O[C@@H]5CO[C@@H](c6cccs6)O[C@H]5[C@H](O)[C@H]3O)[C@H]3COC(=O)[C@H]23)OCO4)cc(OC)c1O
viability (top concentration 46.1 µM): 56.7

O=C1NC(O)CCN1[C@@H]1O[C@H](CO)[C@@H](O)[C@H]1O (stereo partly specified)
viability (top concentration 46.1 µM): 124

CCOC(=O)\C1=C(/C)N\C2=C(C1C3=CC=C(C=C3)C4=CC=CC=C4)\C(=O)CC(C)(C)C2 (stereo unspecified)
viability (top concentration 46.1 µM): 82.6

COC\1=C(/OC)C(=O)\C(=C(C)/C1=O)CCCCCCCCCCO
viability (top concentration 46.1 µM): 112

CC/C(=C(\c1ccccc1)c1ccc(OCCN(C)C)cc1)c1ccccc1
viability (top concentration 46.1 µM): 96

NCC1CCC(C(=O)O)CC1 (stereo unspecified)
viability (top concentration 46.1 µM): 115

Cn1cnc2c1c(=O)[nH]c(=O)n2C
viability (top concentration 46.1 µM): 127

CCN(CC)CCCCNc1ncc2c(n1)N(C)C(=O)N(c1c(Cl)c(OC)cc(OC)c1Cl)C2
viability (top concentration 46.1 µM): 99.8

COc1ccc2c(c1)c(CC(=O)OCC(=O)O)c(C)n2C(=O)c1ccc(Cl)cc1
viability (top concentration 46.1 µM): 90.3

Cc1cc(-c2nnc3n2CCCCC3)c(C)n1-c1ccccc1
viability (top concentration 46.1 µM): 103

N[C@@H]1C[C@H]1c1ccccc1
viability (top concentration 46.1 µM): 108

CCN1\C=C(\C(O)=O)C(=O)C2=C1C=C(N3CCNCC3)C(=C2)F
viability (top concentration 46.1 µM): 121

O=C(c1ccccc1)c1ccc2n1CCC2C(=O)O (stereo unspecified)
viability (top concentration 46.1 µM): 75.8

O=C1NC(=O)/C(=C/c2ccc3nccnc3c2)S1
viability (top concentration 23 µM): 49.8

CC1(C)CNc2cc(NC(=O)c3cccnc3NCc3ccncc3)ccc21
viability (top concentration 46.1 µM): 117

O=C(Nc1ccc(OC(F)(F)F)cc1)c1sccc1NCc1ccnc2ccccc12
viability (top concentration 46.1 µM): 91.2

O[C@@H]1[C@@H](O)[C@H](O[C@@H]([C@H]1O)C(O)=O)OC2=C(O)C(=C3C(=O)\C=C(/OC3=C2)C4=CC=CC=C4)O
viability (top concentration 46.1 µM): 133

O=C(Nc1nc2ccccc2n1CCN1CCOCC1)c1cccc([N+](=O)[O-])c1
viability (top concentration 46.1 µM): 124

CN1C(=O)\C(=C/C(=C1/NC2=C(F)C=C(I)C=C2)C(=O)NOCCO)C
viability (top concentration 46.1 µM): 80.2

COc1ccc2cc([C@H](C)C(=O)O)ccc2c1
viability (top concentration 46.1 µM): 97.3

O=C(C1CCCCC1)N1CC(=O)N2CCc3ccccc3C2C1 (stereo unspecified)
viability (top concentration 46.1 µM): 109

CC(=O)NC[C@H]1CN(c2ccc(N3CCOCC3)c(F)c2)C(=O)O1
viability (top concentration 46.1 µM): 120

COC(=O)C/1=C(C)/N/C(=C(\C1C2=CC(=CC=C2)[N+]([O-])=O)C(=O)OCCCN3CCC(CC3)(C4=CC=CC=C4)C5=CC=CC=C5)C (stereo unspecified)
viability (top concentration 46.1 µM): 128

CCC(C)N(C)C(=O)c1cc2ccccc2c(-c2ccccc2Cl)n1 (stereo unspecified)
viability (top concentration 46.1 µM): 96.7

CC1(C)CCC(=C(\C1)C2=CC=C(Cl)C=C2)/CN3CCN(CC3)C4=CC(=C(C=C4)C(=O)N[S+]([O-])(=O)C5=CC=C(NCC6CCOCC6)C(=C5)[N+]([O-])=O)OC7=CN=C8[NH]C=CC8=C7
viability (top concentration 46.1 µM): 105

COC(=O)Nc1nc2cc(Sc3ccccc3)ccc2[nH]1
viability (top concentration 46.1 µM): 95.8

CCN1CCC(n2cc(CNc3cc(Cl)c4ncc(C#N)c(Nc5ccc(F)c(Cl)c5)c4c3)nn2)CC1
viability (top concentration 46.1 µM): 97

N#Cc1c(NC(=O)c2cccc3ccccc23)sc2c1CCCC2
viability (top concentration 46.1 µM): 109

CO[C@H]1/C=C/O[C@@]2(C)Oc3c(C)c(O)c4c(c3C2=O)C2=NC3(CCN(CC(C)C)CC3)NC2=C(NC(=O)/C(C)=C\C=C\[C@H](C)[C@H](O)[C@@H](C)[C@@H](O)[C@@H](C)[C@H](OC(C)=O)[C@@H]1C)C4=O
viability (top concentration 46.1 µM): 118

CN(C)CC[C@H](c1ccc(Cl)cc1)c1ccccn1
viability (top concentration 46.1 µM): 112

CN1CCN(CC1)C2=C3OCN(C)N4\C=C(C(O)=O)/C(=O)C(=C34)C=C2F
viability (top concentration 46.1 µM): 123

COC/1=C/[C@@H]2[C@@H]3CC4=C(C(=C(OC)C=C4)O)[C@]2(CCN3C)CC1=O
viability (top concentration 46.1 µM): 65

COc1cc2c(cc1OC)CN(CCc1ccc(NC(=O)c3cc(OC)c(OC)cc3NC(=O)c3cnc4ccccc4c3)cc1)CC2
viability (top concentration 46.1 µM): 100

CN1CCC(CNc2ccc3ncc(-c4cccc(OC(F)(F)F)c4)n3n2)CC1
viability (top concentration 46.1 µM): 52.5

Oc1cc(-c2nc(-c3ccccc3)[nH]c2-c2ccncc2)ccc1Cl
viability (top concentration 46.1 µM): 91.4

C[C@H]1O[C@H]([C@H](O)[C@@H]1O)N2\C=C(F)/C(=O)NC2=O
viability (top concentration 46.1 µM): 124

c1ccc2c(CCNc3ccc(Nc4ccncc4)cc3)c[nH]c2c1
viability (top concentration 46.1 µM): 108

CC1=CC=C2\N=C/3N(CC[C@@]3(O)C(=O)C2=C1)C4=CC=CC=C4
viability (top concentration 46.1 µM): 104

CN1\C(=C(\O)C2=C(C=CC=C2)[S+]1([O-])=O)C(=O)NC3=CC=CC=N3
viability (top concentration 46.1 µM): 99

CC1=C(/C=C/C(C)=C/C=C/C(C)=C\C(=O)O)C(C)(C)CCC1
viability (top concentration 46.1 µM): 90

CO[C@@H]1[C@H](N(C)C(=O)c2ccccc2)C[C@H]2O[C@]1(C)n1c3ccccc3c3c4c(c5c6ccccc6n2c5c31)C(=O)NC4
viability (top concentration 46.1 µM): 66.2

Cc1ccc(C(=O)c2cc(O)c(O)c([N+](=O)[O-])c2)cc1
viability (top concentration 46.1 µM): 102

c1cc(N[C@@H]2CCNC2)nc(-c2cnc3ccc(-c4cn[nH]c4)cn23)c1
viability (top concentration 46.1 µM): 122

Cn1c(Nc2ccc(C(F)(F)F)cc2)nc2cc(Oc3ccnc(-c4nc(C(F)(F)F)c[nH]4)c3)ccc21
viability (top concentration 46.1 µM): 92.4

COC1=CC=C2C(=CC=NC2=C1)OC3=CC=C(NC(=O)\C4=C(C)\N(CC(C)(C)O)N(C4=O)C5=CC=CC=C5)C=C3F
viability (top concentration 46.1 µM): 80.3

NC[C@@H]1O[C@H](O[C@H]2[C@@H](O)[C@H](O[C@@H]3[C@@H](O)[C@H](N)C[C@H](N)[C@H]3O[C@H]3O[C@H](CN)[C@@H](O)[C@H](O)[C@H]3N)O[C@@H]2CO)[C@H](N)[C@@H](O)[C@@H]1O.O=S(=O)(O)O.O=S(=O)(O)O.O=S(=O)(O)O
viability (top concentration 46.1 µM): 119

NC(=O)NO
viability (top concentration 46.1 µM): 51.9

CC(C)(F)C[C@H](N[C@@H](c1ccc(-c2ccc([S+](C)(=O)[O-])cc2)cc1)C(F)(F)F)C(=O)NC1(C#N)CC1
viability (top concentration 46.1 µM): 110

CC(C)c1ccc2oc3nc(N)c(C(=O)O)cc3c(=O)c2c1
viability (top concentration 46.1 µM): 116

Cc1nnc(C(=O)NC(C)(C)c2nc(C(=O)NCc3ccc(F)cc3)c(O)c(=O)n2C)o1
viability (top concentration 46.1 µM): 124

O=C(O)CCCc1c[nH]c2ccccc12
viability (top concentration 46.1 µM): 107

N#Cc1ccc(Oc2ccc3c(c2)COB3O)cc1
viability (top concentration 46.1 µM): 124

From the supplement of paper PMC6723410
